± gives the expanded uncertainty stated by the source.
Test: xn = mol fraction of the nth substance listed
Details: 298.15 K, 100 kPa, Liquid; for viscosity: Capillary tube (Ostwald / Ubbelohde) method; for electrical conductivity: Alternating current cell with electrodes

CCCC[N+]1(C)CCCC1.N#CN=C=[N-] [1-butyl-1-methylpyrrolidinium dicyanamide] + O=C1CCCO1
Details	viscosity [mPa·s]
x1 = 0.4985	11.38 ± 0.25
x1 = 0.6954	18.62 ± 0.42
x1 = 0.9013	28.31 ± 0.64
x1 = 1	33.71 ± 0.77

electrical conductivity [S/m]
Details	Frequency=0.0005 MHz	Frequency=0.001 MHz	Frequency=0.0015 MHz	Frequency=0.002 MHz	Frequency=0.0025 MHz	Frequency=0.003 MHz	Frequency=0.00347222 MHz	Frequency=0.004 MHz	Frequency=0.00446429 MHz	Frequency=0.005 MHz
x1 = 0.0463	1.46 ± 0.026	1.47 ± 0.026	1.47 ± 0.026	1.47 ± 0.026	1.47 ± 0.026	1.47 ± 0.026	1.47 ± 0.026	1.47 ± 0.026	1.47 ± 0.026	1.47 ± 0.026
x1 = 0.0987	2.2 ± 0.027	2.2 ± 0.027	2.21 ± 0.027	2.21 ± 0.027	2.21 ± 0.027	2.21 ± 0.027	2.21 ± 0.027	2.21 ± 0.027	2.21 ± 0.027	2.21 ± 0.027
x1 = 0.1449	2.51 ± 0.026	2.51 ± 0.026	2.51 ± 0.026	2.51 ± 0.026	2.51 ± 0.026	2.51 ± 0.026	2.51 ± 0.026	2.51 ± 0.026	2.51 ± 0.026	2.51 ± 0.026
x1 = 0.1859	2.65 ± 0.027	2.65 ± 0.027	2.66 ± 0.027	2.66 ± 0.027	2.67 ± 0.027	2.67 ± 0.027	2.67 ± 0.027	2.67 ± 0.027	2.67 ± 0.027	2.67 ± 0.027
x1 = 0.2493	2.606 ± 0.026	2.608 ± 0.026	2.61 ± 0.026	2.61 ± 0.026	2.611 ± 0.026	2.611 ± 0.026	2.612 ± 0.026	2.612 ± 0.026	2.612 ± 0.026	2.612 ± 0.026
x1 = 0.3029	2.526 ± 0.025	2.53 ± 0.026	2.53 ± 0.026	2.54 ± 0.026	2.54 ± 0.026	2.54 ± 0.026	2.54 ± 0.026	2.54 ± 0.026	2.54 ± 0.026	–
x1 = 0.3845	2.35 ± 0.024	2.36 ± 0.024	2.36 ± 0.024	2.36 ± 0.024	2.36 ± 0.024	2.36 ± 0.024	2.36 ± 0.024	2.36 ± 0.024	2.36 ± 0.024	–
x1 = 0.4985	2.08 ± 0.021	2.08 ± 0.021	2.08 ± 0.021	2.08 ± 0.021	2.08 ± 0.021	2.08 ± 0.021	2.08 ± 0.021	2.08 ± 0.021	2.08 ± 0.021	–
x1 = 0.6954	1.67 ± 0.017	1.68 ± 0.017	1.68 ± 0.017	1.68 ± 0.017	1.68 ± 0.017	1.68 ± 0.017	1.68 ± 0.017	1.68 ± 0.017	1.68 ± 0.017	–
x1 = 0.9013	1.39 ± 0.014	1.39 ± 0.014	1.39 ± 0.014	1.39 ± 0.014	1.39 ± 0.014	1.39 ± 0.014	1.39 ± 0.014	1.39 ± 0.014	1.39 ± 0.014	–
x1 = 1	1.315 ± 0.013	1.316 ± 0.013	1.316 ± 0.013	1.316 ± 0.013	1.317 ± 0.013	1.317 ± 0.013	1.317 ± 0.013	1.317 ± 0.013	1.317 ± 0.013	–

Source: the NIST ThermoML archive (doi:10.1016/j.jct.2015.08.014)
